The values below come from patent US8791148B2, “Substituted benzimidazolone derivatives, medicaments comprising them and their use” (AbbVie Deutschland GmbH & Co. KG, priority 2006, dated 2014).

Usually Ki stands for a dissociation constant, usually derived from enzyme kinetics or from competition with a known ligand.

SMILES strings stand for the structures. Where only a bound is given, the exact number is not on record here.

For the assay, the target named is T1, human vasopressin V1b receptor (Homo sapiens, UniProt P47901).
T1 construct: expressed in transfected cells; host or cells: CHO-K1 (cell line hV1b-3H2_CHO), membrane preparation
T1 sequence (P47901 1-424): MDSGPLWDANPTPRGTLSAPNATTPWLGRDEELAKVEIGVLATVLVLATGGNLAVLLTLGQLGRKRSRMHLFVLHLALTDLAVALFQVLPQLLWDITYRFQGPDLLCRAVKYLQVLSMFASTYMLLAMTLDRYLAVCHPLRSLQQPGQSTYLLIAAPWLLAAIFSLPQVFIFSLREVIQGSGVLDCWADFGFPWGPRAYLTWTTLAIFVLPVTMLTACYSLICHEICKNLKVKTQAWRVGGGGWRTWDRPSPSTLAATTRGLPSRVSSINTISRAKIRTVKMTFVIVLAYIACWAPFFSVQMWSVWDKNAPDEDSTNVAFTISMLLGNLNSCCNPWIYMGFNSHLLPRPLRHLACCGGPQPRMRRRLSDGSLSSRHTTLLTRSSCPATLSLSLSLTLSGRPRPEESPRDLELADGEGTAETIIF
As to the kind of experiment: Vasopressin V1b receptor binding assay. The settings on record: membranes from CHO-K1 cells with stably expressed human V1b receptors; displacement of 1.5 nM 3H-AVP; read-out: V1b receptor affinity (affinity constant Ki). The method in brief:
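Ki values come from nonlinear regression of triplicate scintillation counts after filtration. Test compound (2% DMSO in the mixture) and radioligand were incubated 60 min at room temperature with human V1b membranes in pH 7.4 Tris buffer with 10 mM MgCl2 and 0.1% BSA. Nonspecific binding was set with 1 uM AVP.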
Regarding `COc1ccc(S(=O)(=O)n2c(=O)n(C(C(=O)N3CC[C@@H](N4CCN(C)CC4)C3)c3ccccc3)c3cc(Cl)ccc32)cc1` (stereo partly drawn) [Example 159, 5-Chloro-1-(4-methoxybenzenesulfonyl)-3-{2-[(R)-3-(4-methylpiperazin-1-yl)pyrrolidin-1-yl]-2-oxo-1-phenylethyl}-1,3-dihydrobenzimidazol-2-one], the Ki is less than 100 nM.
With `N#Cc1ccc(S(=O)(=O)n2c(=O)n(C(Cc3ccccc3)C(=O)N3CCN(c4ccncc4)CC3)c3cc(Cl)ccc32)cc1` (stereo not drawn) [Example 29, 4-{3-[1-Benzyl-2-oxo-2-(4-pyridin-4-ylpiperazin-1-yl)ethyl]-5-chloro-2-oxo-2,3-dihydrobenzimidazol-1-sulfonyl}-benzonitrile], the Ki fell in the range of 500 to 10000 nM.
Then `CCCN1CCN(C2CCN(C(=O)C(c3ccccc3)n3c(=O)n(S(=O)(=O)c4ccc(OC)cc4)c4ccc(C#N)cc43)C2)CC1` (stereo not drawn) [Example 52, 1-(4-Methoxybenzenesulfonyl)-2-oxo-3-{2-oxo-1-phenyl-2-[3-(4-propylpiperazin-1-yl)-pyrrolidin-1-yl]-ethyl}-2,3-dihydro-1H-benzimidazole-5-carbonitrile], with less than 100 nM.
As for `CCCN1CCN(C2CCN(C(=O)C(c3ccccc3)n3c(=O)n(S(=O)(=O)c4ccc(OC)cc4)c4ccc(Cl)cc43)C2)CC1` (stereo not drawn) [Example 91, 5-Chloro-1-(4-methoxybenzenesulfonyl)-3-{2-oxo-1-phenyl-2-[3-(4-propylpiperazin-1-yl)-pyrrolidin-1-yl]ethyl}-1,3-dihydrobenzimidazol-2-one], the Ki is less than 100 nM.
Then `COc1ccc(S(=O)(=O)n2c(=O)n(C(C(=O)N(C)CCCN(C)C)c3ccccc3)c3cc(Cl)ccc32)cc1` (stereo not drawn) [Example 117, 2-[6-Chloro-3-(4-methoxybenzenesulfonyl)-2-oxo-2,3-dihydrobenzimidazol-1-yl]-N-(3-dimethylaminopropyl)-N-methyl-2-phenylacetamide], with 100 to 500 nM.
With `COc1ccc(S(=O)(=O)n2c(=O)n(C(C(=O)N3CCN(c4ccncc4)CC3)c3ccccc3)c3cc(C#N)ccc32)c(OC)c1` (stereo not drawn) [Example 48, 1-(2,4-Dimethoxybenzenesulfonyl)-2-oxo-3-[2-oxo-1-phenyl-2-(4-pyridin-4-ylpiperazin-1-yl)-ethyl]-2,3-dihydro-1H-benzimidazole-5-carbonitrile] the figure was 500 to 10000 nM; with `COc1ccccc1C(C(=O)N1CCN(C2CCN(C)CC2)CC1)n1c(=O)n(S(=O)(=O)c2ccc(C#N)cc2)c2ccc(Cl)cc21` (stereo not drawn) [Example 16, 4-(5-Chloro-3-{1-(2-methoxyphenyl)-2-[4-(1-methylpiperidin-4-yl)piperazin-1-yl]-2-oxoethyl}-2-oxo-2,3-dihydrobenzoimidazole-1-sulfonyl)benzonitrile], 500 to 10000 nM.
With `COc1ccc(S(=O)(=O)n2c(=O)n(C(C(=O)N3CCCC(N4CCN(C)CC4)C3)c3ccccc3)c3cc(Cl)ccc32)cc1` (stereo not drawn) [Example 156, 5-Chloro-1-(4-methoxybenzenesulfonyl)-3-{2-[3-(4-methylpiperazin-1-yl)piperidin-1-yl]-2-oxo-1-phenylethyl}-1,3-dihydrobenzimidazol-2-one] the figure was less than 100 nM; with `CCCN1CCN([C@H]2CCN(C(=O)C(c3ccccc3)n3c(=O)n(S(=O)(=O)c4cccs4)c4ccc(C#N)cc43)C2)CC1` (stereo partly drawn) [Example 201, 2-oxo-3-{2-oxo-1-phenyl-2-[(S)-3-(4-propylpiperazin-1-yl)pyrrolidin-1-yl]-ethyl}-1-(thiophene-2-sulfonyl)-2,3-dihydro-1H-benzimidazole-5-carbonitrile], 100 to 500 nM.
For the compound `COc1ccc(S(=O)(=O)n2c(=O)n(C(C(=O)N3CC[C@H](N)C3)c3ccccc3)c3cc(C#N)ccc32)cc1` (stereo partly drawn) [Example 171, 3-[2-((S)-3-Aminopyrrolidin-1-yl)-2-oxo-1-phenylethyl]-1-(4-methoxybenzenesulfonyl)-2-oxo-2,3-dihydro-1H-benzimidazole-5-carbonitrile], the Ki was in the range of 500 to 10000 nM.
On to `COc1ccc(S(=O)(=O)n2c(=O)n(C(C(=O)N3CC[C@H](NC4CCN(C(=O)OC(C)(C)C)CC4)C3)c3ccccc3)c3cc(C#N)ccc32)cc1` (stereo partly drawn) [Example 243, 4-((S)-1-{2-[6-Cyano-3-(4-methoxy-benzenesulfonyl)-2-oxo-2,3-dihydrobenzoimidazol-1-yl]-2-phenyl-acetyl}-pyrrolidin-3-ylamino)-piperidine-1-carboxylic acid tert-butyl ester], for which the Ki is 500 to 10000 nM.
Take `COc1ccc(S(=O)(=O)n2c(=O)n(C(C(=O)N3CCOCC3)c3ccccc3)c3cc(Cl)ccc32)cc1` (stereo not drawn) [Example 99, 5-Chloro-1-(4-methoxybenzenesulfonyl)-3-(2-morpholin-4-yl-2-oxo-1-phenylethyl)-1,3-dihydrobenzimidazol-2-one]: the Ki lay in the range of 500 to 10000 nM.
Turning to `CCCN1CCN(C2CCN(C(=O)C(C)n3c(=O)n(S(=O)(=O)c4ccc(OC)cc4)c4ccc(Cl)cc43)C2)CC1` (stereo not drawn) [Example 75, 5-Chloro-1-(4-methoxybenzenesulfonyl)-3-{1-methyl-2-oxo-2-[3-(4-propylpiperazin-1-yl)-pyrrolidin-1-yl]ethyl}-1,3-dihydrobenzimidazol-2-one], the Ki lay within 100 to 500 nM.
As to `COc1ccc(S(=O)(=O)n2c(=O)n(C(C(=O)N3CCCN(C)CC3)c3ccccc3)c3cc(Cl)ccc32)cc1` (stereo not drawn) [Example 126, 5-Chloro-1-(4-methoxybenzenesulfonyl)-3-[2-(4-methyl-[1,4]diazepan-1-yl)-2-oxo-1-phenylethyl]-1,3-dihydrobenzoimidazol-2-one], the Ki fell in the range of 100 to 500 nM.
For the compound `CCCN1CCN(C2CCN(C(=O)C(c3ccccc3)n3c(=O)n(S(=O)(=O)c4ccc(OC)cc4)c4ccccc43)C2)CC1` (stereo not drawn) [Example 107, 1-(4-Methoxybenzenesulfonyl)-3-{2-oxo-1-phenyl-2-[3-(4-propylpiperazin-1-yl)-pyrrolidin-1-yl]ethyl}-1,3-dihydrobenzimidazol-2-one], the Ki was less than 100 nM.
`COc1ccc(S(=O)(=O)n2c(=O)n(CC(=O)N3CCN(C)CC3)c3cc(Cl)ccc32)cc1` [Example 85, 5-Chloro-1-(4-methoxybenzenesulfonyl)-3-[2-(4-methylpiperazin-1-yl)-2-oxoethyl]-1,3-dihydrobenzimidazol-2-one]: the Ki lay within 500 to 10000 nM.
Take `CC(C(=O)N1CCN(c2ccncc2)CC1)n1c(=O)n(S(=O)(=O)c2ccc(C#N)cc2)c2ccc(Cl)cc21` (stereo not drawn) [Example 32, 4-{5-Chloro-3-[1-methyl-2-oxo-2-(4-pyridin-4-ylpiperazin-1-yl)ethyl]-2-oxo-2,3-dihydrobenzimidazole-1-sulfonyl}benzonitrile]: the Ki is 500 to 10000 nM.
In the case of `O=C(C(c1ccccc1)n1c(=O)n(S(=O)(=O)c2ccco2)c2ccc(Cl)cc21)N1CCN(c2ccncc2)CC1` (stereo not drawn) [Example 2, 5-Chloro-1-(furan-2-sulfonyl)-3-[2-oxo-1-phenyl-2-(4-pyridin-4-ylpiperazin-1-yl)ethyl]-1,3-dihydrobenzimidazol-2-one], the Ki was in the range of 100 to 500 nM.
Then `COc1ccc(S(=O)(=O)n2c(=O)n(C(C(=O)N3CCCC3c3ccccc3)c3ccccc3)c3cc(Cl)ccc32)cc1` (stereo not drawn) [Example 83, 5-Chloro-1-(4-methoxybenzenesulfonyl)-3-[2-oxo-1-phenyl-2-(2-phenylpyrrolidin-1-yl)ethyl]-1,3-dihydrobenzimidazol-2-one], with 500 to 10000 nM; and `COc1ccccc1S(=O)(=O)n1c(=O)n(C(C(=O)N2CCN(c3ccncc3)CC2)c2ccccc2)c2cc(Cl)ccc21` (stereo not drawn) [Example 45, 5-Chloro-1-(2-methoxybenzenesulfonyl)-3-[2-oxo-1-phenyl-2-(4-pyridin-4-ylpiperazin-1-yl)ethyl]-1,3-dihydrobenzimidazol-2-one], with 100 to 500 nM.
As to `CCCN1CCC(N2CCN(C(=O)C(c3ccccc3)n3c(=O)n(S(=O)(=O)c4ccc(OC)cc4)c4ccc(Cl)cc43)CC2)CC1` (stereo not drawn) [Example 129, 5-Chloro-1-(4-methoxybenzenesulfonyl)-3-{2-oxo-1-phenyl-2-[4-(1-propylpiperidin-4-yl)piperazin-1-yl]ethyl}-1,3-dihydrobenzimidazol-2-one], the Ki was in the range of 100 to 500 nM.
On to `COc1ccc(S(=O)(=O)n2c(=O)n(C(C(=O)NCCN3CCN(C(=O)OC(C)(C)C)CC3)c3ccccc3)c3cc(Cl)ccc32)cc1` (stereo not drawn) [Example 130, tert-Butyl 4-(2-{2-[6-chloro-3-(4-methoxybenzenesulfonyl)-2-oxo-2,3-dihydrobenzimidazol-1-yl]-2-phenylacetylamino}ethyl)piperazine-1-carboxylate], for which the Ki was in the range of 500 to 10000 nM.
For the compound `O=C(C(c1ccccc1)n1c(=O)n(S(=O)(=O)c2ccccc2)c2ccc(Cl)cc21)N1CCN(c2ccncc2)CC1` (stereo not drawn) [Example 47, 1-Benzenesulfonyl-5-chloro-3-[2-oxo-1-phenyl-2-(4-pyridin-4-ylpiperazin-1-yl)ethyl]-1,3-dihydrobenzimidazol-2-one], the Ki was in the range of 100 to 500 nM.
For the compound `CCCN1CCN(C2CCN(C(=O)C(c3ccccc3)n3c(=O)n(S(=O)(=O)c4ccc(OC)cc4)c4cc(Cl)ccc43)C2)CC1` (stereo not drawn) [Example 74, 5-Chloro-3-(4-methoxybenzenesulfonyl)-1-{2-oxo-1-phenyl-2-[3-(4-propylpiperazin-1-yl)-pyrrolidin-1-yl]ethyl}-1,3-dihydrobenzimidazol-2-one], the Ki was less than 100 nM.
